Test results published in patent US20120122860A1, “SOLID FORMS OF SULFONAMIDES AND AMINO ACIDS” (Plexxikon, Inc., priority 2009, published 2012).

How the values were obtained:
B-Raf = B-Raf (Homo sapiens, UniProt P15056); assay: Kinase activity assay, B-Raf; assay type: biochemical; conditions: read-out: activity toward kinase B-Raf, IC50
B-Raf V600E = B-Raf V600E (Homo sapiens, UniProt P15056, V600E); assay: Kinase activity assay, B-Raf V600E; assay type: biochemical; conditions: read-out: activity toward kinase B-Raf V600E, IC50
Chain of B-Raf V600E (P15056 whole entry V600E): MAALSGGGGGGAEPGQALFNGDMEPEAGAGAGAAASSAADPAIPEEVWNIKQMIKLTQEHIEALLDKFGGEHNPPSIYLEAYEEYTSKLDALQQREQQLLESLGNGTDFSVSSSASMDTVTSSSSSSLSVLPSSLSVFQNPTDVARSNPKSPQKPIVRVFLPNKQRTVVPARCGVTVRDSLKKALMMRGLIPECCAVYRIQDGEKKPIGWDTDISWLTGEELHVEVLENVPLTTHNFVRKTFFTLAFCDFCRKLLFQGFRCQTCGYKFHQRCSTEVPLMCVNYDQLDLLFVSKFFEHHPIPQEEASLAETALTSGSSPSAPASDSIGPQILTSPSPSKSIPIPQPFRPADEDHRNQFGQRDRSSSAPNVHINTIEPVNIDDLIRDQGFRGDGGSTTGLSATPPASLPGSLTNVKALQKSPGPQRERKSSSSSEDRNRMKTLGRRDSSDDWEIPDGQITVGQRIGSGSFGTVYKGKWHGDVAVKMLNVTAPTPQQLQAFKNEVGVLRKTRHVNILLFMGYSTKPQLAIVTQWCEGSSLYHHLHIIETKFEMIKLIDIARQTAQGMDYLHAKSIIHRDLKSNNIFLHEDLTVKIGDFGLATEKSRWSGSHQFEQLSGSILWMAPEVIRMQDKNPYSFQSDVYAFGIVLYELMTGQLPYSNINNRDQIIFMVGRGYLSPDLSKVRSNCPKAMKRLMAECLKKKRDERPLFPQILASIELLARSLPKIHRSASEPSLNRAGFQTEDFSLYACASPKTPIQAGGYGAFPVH

Fms = Fms (Homo sapiens, UniProt P07333); assay: Kinase activity assay, Fms
Chain of Fms (P07333 20-972): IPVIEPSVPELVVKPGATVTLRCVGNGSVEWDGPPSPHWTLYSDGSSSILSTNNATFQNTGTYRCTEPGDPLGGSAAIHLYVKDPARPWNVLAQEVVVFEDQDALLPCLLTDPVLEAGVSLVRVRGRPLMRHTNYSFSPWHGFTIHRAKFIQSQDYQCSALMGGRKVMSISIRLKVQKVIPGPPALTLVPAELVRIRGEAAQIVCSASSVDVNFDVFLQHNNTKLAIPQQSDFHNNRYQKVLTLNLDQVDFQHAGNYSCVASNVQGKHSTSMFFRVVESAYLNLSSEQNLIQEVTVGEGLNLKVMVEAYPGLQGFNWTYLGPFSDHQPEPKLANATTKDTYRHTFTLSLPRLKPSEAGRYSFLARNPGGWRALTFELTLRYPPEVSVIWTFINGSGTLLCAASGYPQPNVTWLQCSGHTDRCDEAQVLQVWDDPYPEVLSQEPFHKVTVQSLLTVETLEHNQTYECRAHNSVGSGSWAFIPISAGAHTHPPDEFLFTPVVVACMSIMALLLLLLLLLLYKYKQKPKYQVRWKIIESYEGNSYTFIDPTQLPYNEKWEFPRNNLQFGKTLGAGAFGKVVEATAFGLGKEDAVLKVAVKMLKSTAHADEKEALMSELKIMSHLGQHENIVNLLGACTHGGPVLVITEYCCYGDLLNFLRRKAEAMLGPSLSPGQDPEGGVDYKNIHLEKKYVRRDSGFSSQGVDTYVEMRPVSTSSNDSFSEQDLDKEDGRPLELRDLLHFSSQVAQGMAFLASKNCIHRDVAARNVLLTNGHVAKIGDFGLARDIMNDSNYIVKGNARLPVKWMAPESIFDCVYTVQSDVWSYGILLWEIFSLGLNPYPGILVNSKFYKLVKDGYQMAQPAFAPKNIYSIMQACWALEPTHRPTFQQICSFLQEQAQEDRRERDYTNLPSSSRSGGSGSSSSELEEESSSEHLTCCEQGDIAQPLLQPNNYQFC

Kdr = Kdr (Homo sapiens, UniProt P35968); assay: Kinase activity assay, Kdr
Chain of Kdr (P35968 20-1356): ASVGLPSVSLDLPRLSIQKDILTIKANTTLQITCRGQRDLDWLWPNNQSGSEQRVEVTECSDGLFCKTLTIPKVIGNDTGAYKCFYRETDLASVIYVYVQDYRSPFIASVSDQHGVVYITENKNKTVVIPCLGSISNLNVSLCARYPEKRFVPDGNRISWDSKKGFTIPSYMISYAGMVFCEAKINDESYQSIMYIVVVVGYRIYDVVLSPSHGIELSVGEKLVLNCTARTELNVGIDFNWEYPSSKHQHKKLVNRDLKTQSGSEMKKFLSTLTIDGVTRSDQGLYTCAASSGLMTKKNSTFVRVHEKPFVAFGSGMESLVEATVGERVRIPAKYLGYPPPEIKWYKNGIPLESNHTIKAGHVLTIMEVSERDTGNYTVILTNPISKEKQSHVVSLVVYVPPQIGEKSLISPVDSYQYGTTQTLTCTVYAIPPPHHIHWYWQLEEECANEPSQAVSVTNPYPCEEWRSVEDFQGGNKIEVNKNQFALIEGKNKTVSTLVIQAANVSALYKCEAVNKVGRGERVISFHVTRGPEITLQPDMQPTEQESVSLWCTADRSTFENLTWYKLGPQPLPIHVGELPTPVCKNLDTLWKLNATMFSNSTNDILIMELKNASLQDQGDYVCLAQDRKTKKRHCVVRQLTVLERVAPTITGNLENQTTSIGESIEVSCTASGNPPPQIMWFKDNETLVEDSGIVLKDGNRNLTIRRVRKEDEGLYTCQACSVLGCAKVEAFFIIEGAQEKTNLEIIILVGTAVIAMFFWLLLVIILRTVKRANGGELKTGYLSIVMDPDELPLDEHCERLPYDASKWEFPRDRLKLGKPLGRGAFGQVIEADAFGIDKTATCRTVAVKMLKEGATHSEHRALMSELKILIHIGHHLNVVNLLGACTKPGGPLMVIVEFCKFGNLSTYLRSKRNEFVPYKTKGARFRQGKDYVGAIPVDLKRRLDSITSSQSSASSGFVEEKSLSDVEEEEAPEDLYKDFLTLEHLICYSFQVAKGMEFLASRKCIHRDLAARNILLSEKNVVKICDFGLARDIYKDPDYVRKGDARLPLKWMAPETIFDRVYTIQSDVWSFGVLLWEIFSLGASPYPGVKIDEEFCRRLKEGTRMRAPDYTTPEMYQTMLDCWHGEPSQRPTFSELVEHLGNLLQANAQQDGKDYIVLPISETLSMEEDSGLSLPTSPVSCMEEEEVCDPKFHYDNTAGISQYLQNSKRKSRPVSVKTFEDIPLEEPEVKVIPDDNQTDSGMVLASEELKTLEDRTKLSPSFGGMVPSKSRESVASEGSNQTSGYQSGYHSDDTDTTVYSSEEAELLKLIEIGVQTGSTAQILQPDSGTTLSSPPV

Kit = Kit (Homo sapiens, UniProt P10721); assay: Kinase activity assay, Kit
Src = Src (Homo sapiens, UniProt P12931); assay: Kinase activity assay, Src
Chain of Src (P12931 whole entry): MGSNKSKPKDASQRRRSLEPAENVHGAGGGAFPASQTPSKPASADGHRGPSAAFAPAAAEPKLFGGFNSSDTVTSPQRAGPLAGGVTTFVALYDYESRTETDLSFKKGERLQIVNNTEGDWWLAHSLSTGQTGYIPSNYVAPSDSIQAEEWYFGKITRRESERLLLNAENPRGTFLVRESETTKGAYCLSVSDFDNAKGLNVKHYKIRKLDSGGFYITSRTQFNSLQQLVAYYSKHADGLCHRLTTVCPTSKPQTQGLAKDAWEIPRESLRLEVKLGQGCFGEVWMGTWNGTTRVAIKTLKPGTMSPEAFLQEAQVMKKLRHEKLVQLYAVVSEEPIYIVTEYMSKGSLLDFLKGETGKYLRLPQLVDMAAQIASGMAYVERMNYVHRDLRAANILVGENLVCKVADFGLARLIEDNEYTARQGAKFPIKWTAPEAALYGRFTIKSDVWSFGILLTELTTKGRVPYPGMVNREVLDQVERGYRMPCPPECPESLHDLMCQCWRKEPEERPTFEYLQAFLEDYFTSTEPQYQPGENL

TEC = target: T1, TEC (Homo sapiens, UniProt P42680); assay: Kinase activity assay, TEC
T1 sequence (P42680 1-631): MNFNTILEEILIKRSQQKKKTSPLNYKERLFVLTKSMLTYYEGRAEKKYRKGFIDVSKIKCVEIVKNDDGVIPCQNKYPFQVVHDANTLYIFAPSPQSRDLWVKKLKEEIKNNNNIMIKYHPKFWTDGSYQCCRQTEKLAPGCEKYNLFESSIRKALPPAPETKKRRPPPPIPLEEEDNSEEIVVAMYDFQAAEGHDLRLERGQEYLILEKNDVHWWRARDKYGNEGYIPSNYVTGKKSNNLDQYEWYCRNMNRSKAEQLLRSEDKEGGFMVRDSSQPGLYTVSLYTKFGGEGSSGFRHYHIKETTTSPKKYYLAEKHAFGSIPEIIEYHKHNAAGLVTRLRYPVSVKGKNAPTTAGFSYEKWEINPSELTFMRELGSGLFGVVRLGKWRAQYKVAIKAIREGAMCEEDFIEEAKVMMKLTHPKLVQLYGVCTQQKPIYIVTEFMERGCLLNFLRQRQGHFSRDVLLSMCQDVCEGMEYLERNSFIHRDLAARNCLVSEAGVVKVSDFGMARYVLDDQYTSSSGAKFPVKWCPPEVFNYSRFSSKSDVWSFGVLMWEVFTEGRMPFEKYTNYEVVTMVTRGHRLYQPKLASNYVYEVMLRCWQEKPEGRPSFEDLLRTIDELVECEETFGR

C-Raf = C-Raf (Homo sapiens, UniProt P04049); assay: Kinase activity assay, C-Raf
MAP4K4 = MAP4K4 (Homo sapiens, UniProt O95819); assay: Kinase activity assay, MAP4K4
Chain of MAP4K4 (O95819 whole entry): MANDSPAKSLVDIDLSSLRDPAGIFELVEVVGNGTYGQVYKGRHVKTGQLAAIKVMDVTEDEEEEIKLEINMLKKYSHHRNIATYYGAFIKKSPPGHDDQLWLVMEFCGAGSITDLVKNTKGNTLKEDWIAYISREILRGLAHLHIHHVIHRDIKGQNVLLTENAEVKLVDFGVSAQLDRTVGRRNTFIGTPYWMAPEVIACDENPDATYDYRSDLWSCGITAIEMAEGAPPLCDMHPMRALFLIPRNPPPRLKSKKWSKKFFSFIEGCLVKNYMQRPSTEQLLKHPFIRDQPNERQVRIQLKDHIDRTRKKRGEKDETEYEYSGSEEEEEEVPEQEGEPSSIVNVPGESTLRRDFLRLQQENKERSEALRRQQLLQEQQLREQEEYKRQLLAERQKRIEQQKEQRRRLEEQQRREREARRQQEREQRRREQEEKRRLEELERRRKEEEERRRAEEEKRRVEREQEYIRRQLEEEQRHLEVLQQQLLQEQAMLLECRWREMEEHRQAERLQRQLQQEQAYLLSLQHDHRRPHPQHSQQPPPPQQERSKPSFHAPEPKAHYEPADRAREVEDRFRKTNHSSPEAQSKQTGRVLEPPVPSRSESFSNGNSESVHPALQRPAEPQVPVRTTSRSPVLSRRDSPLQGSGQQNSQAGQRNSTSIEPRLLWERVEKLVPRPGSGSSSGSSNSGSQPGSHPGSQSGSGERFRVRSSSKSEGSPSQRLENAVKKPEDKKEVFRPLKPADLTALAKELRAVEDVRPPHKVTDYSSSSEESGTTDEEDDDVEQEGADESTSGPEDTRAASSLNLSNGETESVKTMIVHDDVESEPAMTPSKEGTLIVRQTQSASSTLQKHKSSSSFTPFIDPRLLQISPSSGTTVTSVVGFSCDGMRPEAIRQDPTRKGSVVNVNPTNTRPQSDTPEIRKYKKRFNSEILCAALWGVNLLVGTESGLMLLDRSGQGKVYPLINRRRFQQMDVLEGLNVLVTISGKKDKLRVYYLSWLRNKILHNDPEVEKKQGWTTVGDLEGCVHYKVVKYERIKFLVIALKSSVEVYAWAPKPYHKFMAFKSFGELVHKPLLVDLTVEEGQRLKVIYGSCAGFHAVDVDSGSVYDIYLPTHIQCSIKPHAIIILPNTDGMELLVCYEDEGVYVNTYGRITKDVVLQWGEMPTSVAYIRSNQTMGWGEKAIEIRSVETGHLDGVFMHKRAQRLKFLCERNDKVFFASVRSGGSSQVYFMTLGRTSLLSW

A-Raf = target: T2, A-Raf (Homo sapiens, UniProt P10398); assay: Kinase activity assay, A-Raf
T2 sequence (P10398 1-606): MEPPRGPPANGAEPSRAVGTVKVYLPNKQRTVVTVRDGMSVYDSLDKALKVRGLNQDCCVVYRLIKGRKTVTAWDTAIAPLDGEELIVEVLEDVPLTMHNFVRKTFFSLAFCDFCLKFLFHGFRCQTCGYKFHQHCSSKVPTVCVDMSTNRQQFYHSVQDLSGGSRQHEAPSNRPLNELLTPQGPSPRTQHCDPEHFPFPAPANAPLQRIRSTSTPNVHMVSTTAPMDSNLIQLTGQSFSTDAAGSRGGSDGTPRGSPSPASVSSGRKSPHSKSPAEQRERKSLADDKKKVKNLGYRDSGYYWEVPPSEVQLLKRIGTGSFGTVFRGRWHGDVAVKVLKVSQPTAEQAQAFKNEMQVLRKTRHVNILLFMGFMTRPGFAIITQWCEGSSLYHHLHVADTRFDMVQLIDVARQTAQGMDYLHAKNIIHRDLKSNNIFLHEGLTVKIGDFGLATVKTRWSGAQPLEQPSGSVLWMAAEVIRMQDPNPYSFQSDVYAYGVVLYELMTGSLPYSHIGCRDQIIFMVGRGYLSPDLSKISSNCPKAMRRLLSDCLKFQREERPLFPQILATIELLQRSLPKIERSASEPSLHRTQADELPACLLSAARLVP

Measured: IC50

Chain of B-Raf (P15056 whole entry): as the sequence (P15056 whole entry V600E) above, with E600V counted along it

O=C(c1c(F)ccc(NS(=O)(=O)c2c(F)cccc2F)c1F)c1c[nH]c2ncc(Cl)cc12 [P-2003, N-[3-(5-Chloro-1H-pyrrolo[2,3-b]pyridine-3-carbonyl)-2,4-difluoro-phenyl]-2,6-difluoro-benzenesulfonamide]
not listed: A-Raf
≤ 10 µM: all other assays above

N#Cc1ccnc2[nH]cc(C(=O)c3c(F)ccc(NS(=O)(=O)c4ccccc4F)c3F)c12 [P-2020, N-[3-(4-Cyano-1H-pyrrolo[2,3-b]pyridine-3-carbonyl)-2,4-difluoro-phenyl]-2-fluoro-benzenesulfonamide]
not listed: Fms | MAP4K4
≤ 10 µM: all other assays above

N#Cc1cnc2[nH]cc(C(=O)c3c(F)ccc(NS(=O)(=O)c4ccccc4)c3F)c2c1 [P-2046, N-[3-(5-Cyano-1H-pyrrolo[2,3-b]pyridine-3-carbonyl)-2,4-difluoro-phenyl]-benzenesulfonamide]
not listed: Fms | Kdr | MAP4K4
≤ 10 µM: all other assays above

COc1ccnc2[nH]cc(C(=O)c3c(F)ccc(NS(=O)(=O)c4ccc(C(F)(F)F)cc4)c3F)c12 [P-2047, N-[2,4-Difluoro-3-(4-methoxy-1H-pyrrolo[2,3-b]pyridine-3-carbonyl)-phenyl]-4-trifluoromethyl-benzenesulfonamide]
not listed: Fms | Kdr | MAP4K4
≤ 10 µM: all other assays above

CCCS(=O)(=O)Nc1ccc(F)c(C(=O)c2c[nH]c3ncc(CCCN4CCOCC4)cc23)c1F [P-2247, Propane-1-sulfonic acid {2,4-difluoro-3-[5-(3-morpholin-4-yl-propyl)-1H-pyrrolo[2,3-b]pyridine-3-carbonyl]-phenyl}-amide]
not listed: Fms | Kit | Src
≤ 10 µM: all other assays above

CCCS(=O)(=O)Nc1ccc(F)c(C(=O)c2c[nH]c3ncc(CCCN4CCCC4)cc23)c1F [P-2248, Propane-1-sulfonic acid {2,4-difluoro-3-[5-(3-pyrrolidin-1-yl-propyl)-1H-pyrrolo[2,3-b]pyridine-3-carbonyl]-phenyl}-amide]
≤ 10 µM: B-Raf | B-Raf V600E | Kdr | TEC | A-Raf | C-Raf

CCCS(=O)(=O)Nc1ccc(F)c(C(=O)c2c[nH]c3ncc(CO)cc23)c1F [P-2250, Propane-1-sulfonic acid [2,4-difluoro-3-(5-hydroxymethyl-1H-pyrrolo[2,3-b]pyridine-3-carbonyl)-phenyl]-amide]
≤ 10 µM: B-Raf | B-Raf V600E | Kdr | TEC | A-Raf | C-Raf

CCCS(=O)(=O)Nc1ccc(F)c(C(=O)c2c[nH]c3ncc(CN4CCN(C)CC4)cc23)c1F [P-2257, Propane-1-sulfonic acid {2,4-difluoro-3-[5-(4-methyl-piperazin-1-ylmethyl)-1H-pyrrolo[2,3-b]pyridine-3-carbonyl]-phenyl}-amide]
≤ 10 µM: B-Raf | B-Raf V600E | TEC | A-Raf | C-Raf

C#Cc1ccnc2[nH]cc(C(=O)c3c(F)ccc(NS(=O)(=O)CCC)c3F)c12 [P-2261, Propane-1-sulfonic acid [3-(4-ethynyl-1H-pyrrolo[2,3-b]pyridine-3-carbonyl)-2,4-difluoro-phenyl]-amide]
not listed: Fms | Kit | MAP4K4
≤ 10 µM: all other assays above

Cc1cnc2[nH]cc(C(=O)c3c(F)ccc(NS(=O)(=O)C(C)C)c3F)c2c1 [P-2278, Propane-2-sulfonic acid [2,4-difluoro-3-(5-methyl-1H-pyrrolo[2,3-b]pyridine-3-carbonyl)-phenyl]-amide]
not listed: Fms | Kit | Src
≤ 10 µM: all other assays above

CS(=O)(=O)Nc1ccc(F)c(C(=O)c2c[nH]c3nccc(C#N)c23)c1F [P-2292, N-[3-(4-Cyano-1H-pyrrolo[2,3-b]pyridine-3-carbonyl)-2,4-difluoro-phenyl]-methanesulfonamide]
≤ 10 µM: B-Raf V600E | Kdr | TEC | A-Raf | C-Raf

N#Cc1cnc2[nH]cc(C(=O)c3c(F)ccc(NS(=O)(=O)C4CCC4)c3F)c2c1 [P-2353, Cyclobutanesulfonic acid [3-(5-cyano-1H-pyrrolo[2,3-b]pyridine-3-carbonyl)-2,4-difluoro-phenyl]-amide]
not listed: Fms | Src
≤ 10 µM: all other assays above

Cc1cnc2[nH]cc(C(=O)c3cc(NS(=O)(=O)C4CCCCC4)ccc3F)c2c1 [P-2443, Cyclohexanesulfonic acid [4-fluoro-3-(5-methyl-1H-pyrrolo[2,3-b]pyridine-3-carbonyl)-phenyl]-amide]
≤ 10 µM: Fms | Kdr | Kit | TEC | MAP4K4

CS(=O)(=O)c1cccc(-c2cnc3[nH]cc(C(=O)c4cc(NS(=O)(=O)C5CCCC5)ccc4F)c3c2)c1 [P-2445, Cyclopentanesulfonic acid {4-fluoro-3-[5-(3-methanesulfonyl-phenyl)-1H-pyrrolo[2,3-b]pyridine-3-carbonyl]-phenyl}-amide]
not listed: A-Raf
≤ 10 µM: all other assays above
